Columns and labels:
Type in all cases: binding
P2RY6 = target: T1, P2RY6 (Homo sapiens, UniProt Q15077); test: NanoBRET screen HiBiT-P2RY6 in HEK293
T1 construct: purchased Promega (in-house HiBiT-GPCR construct library, NanoBRET)
Protocol: (§1) Each tracer candidate was screened across the entire library of HiBiT-GPCR constructs using NanoBRET as the detection modality. As depicted in Figure 4A, the specificity of interactions was evaluated through decrease in BRET due to competitive displacement of a bound tracer by excess parental compound. Each tracer was analyzed for binding to each HiBiT-GPCR fusion in the absence and in the presence of competing parental compound. Briefly, HEK293 cells were transfected with HiBiT-GPCR constructs diluted into promoterless DNA to reduce expression and maximize translocation to the cell surface. Each tracer candidate was then screened at concentrations of 1 μM and 0.1 μM across cells expressing these fusions. Cells were treated for 1.5 h with tracer either alone or in the presence of 20 μM competing parental compound (i.e., control). BRET was measured upon addition of purified LgBiT and subsequent complementation with HiBiT genetically fused to a GPCR. The specificity of interactions was assessed through a decrease in BRET signal due to competitive displacement of the bound tracer. To further gauge the robustness of these interactions, the fold response over the control (i.e., BRETtracer/BRETcontrol) was calculated. We chose a 1.5-fold response, which translates to ≥7-fold signal over noise as the minimal threshold required to score an interaction as positive. […]. Below we highlight the screening results obtained for our exemplary fluorescent tracers based on Clozapine, Amitriptyline and AZD1283.
(§2) HiBiT-GPCR DNA constructs were diluted in 10 mM Tris pH 8 to a final concentration of 0.01 μg/μL, arrayed in 96-well plates and stored at −20 °C. For transfection, HEK293 cells were suspended in Opti-MEM (without phenol red) supplemented with 2% fetal bovine serum (Seradigm) and 100 units/mL penicillin–streptomycin (Gibco) at a final concentration of 220,000 cells/mL and dispensed into white 96-well plates at 90 μL/well. Subsequent transfections and screens were carried using an Agilent Bravo Automated Liquid Handling Platform. First, the 96-well HiBiT DNA arrays were diluted 25-fold in Opti-MEM (without serum or phenol red) to a final concentration of 0.0004 μg/μL and 20 μL of the diluted DNAs were transferred into new 96-well plates. Next, promoterless carrier DNA (1 μg/μL) was diluted 25-fold (0.04 μg/μL) and then dispensed into the diluted arrays at 20 μL/well. Following brief mixing, Viafect transfection reagent (Promega) diluted 16-fold into Opti-MEM was dispensed into the plates at 40 μL/well. After mixing by pipetting, plates were incubated for 10 min on the pipetting station deck. The DNA-transfection reagent complexes were then added to plates containing cells. To facilitate the screen, 10 μL of DNA-transfection reagent complexes were added in duplicates to the top 4 and bottom 4 rows, resulting in two identical 48-well arrays per plate. Plates with transfected cells were incubated for 18–20 h at 37 °C/5% CO2. A screen of each tracer across the entire library using two different concentrations requires duplicate plates of transfected cells. Depending on the number of tracers being screened, transfections can be scaled up using the same ratios. The next day, for each tracer, four 20× screening solutions in tracer dilution buffer (Promega) were prepared: two duplicates at final concentration of 20 μM and two duplicates at a final concentration of 2 μM. A competing unmodified compound was added to one of each duplicate at a final concentration of 400 μM. The four resulting solutions were diluted 4-fold in Opti-MEM without serum or phenol red to generate 5× solutions (5 µM and 0.5 µM tracer +/− 100 μM competing compound). To screen the library, a BioTek MultiFlo FX liquid dispenser was used to dispense 22.5 µL of tracer solution to the top 4 rows and 22.5 µL tracer + competing compound solution to the 4 bottom rows. Plates were briefly mixed on an orbital shaker and incubated for 1.5 h at room temperature. […]

PTGDR = target: T2, PTGDR (Homo sapiens, UniProt Q13258); test: NanoBRET screen HiBiT-PTGDR in HEK293
T2 construct: purchased Promega (in-house HiBiT-GPCR construct library, NanoBRET)
T2 sequence (Q13258 1-359): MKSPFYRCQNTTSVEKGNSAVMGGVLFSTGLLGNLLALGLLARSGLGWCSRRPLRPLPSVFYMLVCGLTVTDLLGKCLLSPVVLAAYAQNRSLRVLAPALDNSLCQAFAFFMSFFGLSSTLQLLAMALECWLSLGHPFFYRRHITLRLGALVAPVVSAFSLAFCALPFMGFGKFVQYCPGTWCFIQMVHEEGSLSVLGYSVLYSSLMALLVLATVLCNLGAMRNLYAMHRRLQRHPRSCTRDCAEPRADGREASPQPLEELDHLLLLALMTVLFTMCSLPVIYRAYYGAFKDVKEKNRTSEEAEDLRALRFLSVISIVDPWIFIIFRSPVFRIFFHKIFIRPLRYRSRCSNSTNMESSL
Protocol: as §1, §2

CNR1 = target: T3, CNR1 (Homo sapiens, UniProt P21554); test: NanoBRET screen HiBiT-CNR1 in HEK293; conditions: CNR1
T3 construct: purchased Promega (in-house HiBiT-GPCR construct library, NanoBRET)
Protocol: as §1, §2

T1 sequence (Q15077 whole entry): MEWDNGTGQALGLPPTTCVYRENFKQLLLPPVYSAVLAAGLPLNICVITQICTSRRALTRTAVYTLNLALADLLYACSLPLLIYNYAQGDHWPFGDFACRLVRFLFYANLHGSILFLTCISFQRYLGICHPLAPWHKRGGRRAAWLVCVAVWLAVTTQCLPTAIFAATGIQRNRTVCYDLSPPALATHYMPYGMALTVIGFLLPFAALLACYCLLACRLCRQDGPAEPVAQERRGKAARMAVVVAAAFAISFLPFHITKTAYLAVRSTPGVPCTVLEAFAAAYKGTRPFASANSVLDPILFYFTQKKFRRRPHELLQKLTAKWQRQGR
T3 sequence (P21554 whole entry): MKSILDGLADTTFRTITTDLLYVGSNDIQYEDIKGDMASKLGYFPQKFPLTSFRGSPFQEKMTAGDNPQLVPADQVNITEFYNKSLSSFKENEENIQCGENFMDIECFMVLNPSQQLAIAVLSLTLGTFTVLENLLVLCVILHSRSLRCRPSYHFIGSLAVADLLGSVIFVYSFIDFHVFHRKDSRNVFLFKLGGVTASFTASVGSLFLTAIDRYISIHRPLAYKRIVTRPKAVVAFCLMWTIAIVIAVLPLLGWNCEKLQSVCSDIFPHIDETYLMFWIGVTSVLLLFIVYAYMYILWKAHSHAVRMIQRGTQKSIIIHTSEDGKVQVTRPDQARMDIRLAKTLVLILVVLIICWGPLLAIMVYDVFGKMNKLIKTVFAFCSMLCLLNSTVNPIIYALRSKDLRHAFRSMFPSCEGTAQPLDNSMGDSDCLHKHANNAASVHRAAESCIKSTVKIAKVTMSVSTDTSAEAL

O=C(CCc1ccc2n1[B-](F)(F)[N+]1=C(c3ccc[nH]3)C=CC1=C2)NCCOCCOCCNC(=O)OCCOCCN1CCN(C2=Nc3ccccc3Sc3ccccc32)CC1 [Quetiapine-a-2-NB590]
NanoBRET Fold Response (P2RY6; P2RY6, tracer 0.1μM): 1.30 | NanoBRET Fold Response (P2RY6; P2RY6, tracer 1μM): 0.96 | NanoBRET Fold Response (PTGDR; PTGDR, tracer 0.1μM): 0.99 | NanoBRET Fold Response (PTGDR; PTGDR, tracer 1μM): 1.02 | NanoBRET Fold Response (CNR1; tracer 0.1μM): 1.00 | NanoBRET Fold Response (CNR1; tracer 1μM): 1.00

CN1CCN(C2=Nc3cc(Cl)ccc3Nc3ccc(CNC(=O)CCOCCOCCOCCOCCNC(=O)CCc4ccc5n4[B-](F)(F)[N+]4=C(c6ccc[nH]6)C=CC4=C5)cc32)CC1 [Clozapine-b-2-NB590]
NanoBRET Fold Response (P2RY6; P2RY6, 0.1μM tracer): 1.04 | NanoBRET Fold Response (P2RY6; P2RY6, 1μM tracer): 0.98 | NanoBRET Fold Response (PTGDR; PTGDR, 0.1μM tracer): 1.10 | NanoBRET Fold Response (PTGDR; PTGDR, 1μM tracer): 1.01 | NanoBRET Fold Response (CNR1; 0.1μM tracer): 1.01 | NanoBRET Fold Response (CNR1; 1μM tracer): 1.03

CC(C)N(CC[C@H](c1ccccc1)c1cc(CCNC(=O)CCOCCOCCOCCOCCNC(=O)CCc2ccc3n2[B-](F)(F)[N+]2=C(c4ccc[nH]4)C=CC2=C3)ccc1O)C(C)C [Tolterodine-2-NB590]
NanoBRET Fold Response (P2RY6; P2RY6, tracer 0.1μM): 1.06 | NanoBRET Fold Response (P2RY6; P2RY6, tracer 1μM): 0.98 | NanoBRET Fold Response (PTGDR; PTGDR, tracer 0.1μM): 1.16 | NanoBRET Fold Response (PTGDR; PTGDR, tracer 1μM): 0.96 | NanoBRET Fold Response (CNR1; tracer 0.1μM): 1.03 | NanoBRET Fold Response (CNR1; tracer 1μM): 1.14

Cc1cc2c(s1)Nc1ccccc1N=C2N1CCN(CCCNC(=O)CCOCCOCCOCCOCCNC(=O)CCc2ccc3n2[B-](F)(F)[N+]2=C(c4ccc[nH]4)C=CC2=C3)CC1 [Olanzapine-a-2-NB590]
NanoBRET Fold Response (P2RY6; P2RY6, tracer 0.1μM): 1.31 | NanoBRET Fold Response (P2RY6; P2RY6, tracer 1μM): 0.95 | NanoBRET Fold Response (PTGDR; PTGDR, tracer 0.1μM): 0.95 | NanoBRET Fold Response (PTGDR; PTGDR, tracer 1μM): 1.09 | NanoBRET Fold Response (CNR1; tracer 0.1μM): 0.99 | NanoBRET Fold Response (CNR1; tracer 1μM): 1.05

N#CN=C(NCCCOc1cccc(CN2CCCCC2)c1)NCCNC(=O)CCOCCOCCOCCOCCNC(=O)CCc1ccc2n1[B-](F)(F)[N+]1=C(c3ccc[nH]3)C=CC1=C2 [Aminopotentidine-2-NB590]
NanoBRET Fold Response (P2RY6; P2RY6, tracer 0.1μM): 1.12 | NanoBRET Fold Response (P2RY6; P2RY6, tracer 1μM): 0.86 | NanoBRET Fold Response (PTGDR; PTGDR, tracer 0.1μM): 0.99 | NanoBRET Fold Response (PTGDR; PTGDR, tracer 1μM): 0.79 | NanoBRET Fold Response (CNR1; tracer 0.1μM): 0.98 | NanoBRET Fold Response (CNR1; tracer 1μM): 1.00

Cc1nc2n(c(=O)c1CCN1CCC(c3noc4cc(F)ccc34)CC1)CCCC2OC(=O)NCCOCCOCCOCCOCCNC(=O)CCc1ccc2n1[B-](F)(F)[N+]1=C(c3ccc[nH]3)C=CC1=C2 (centres unmarked) [Risperidone-2-NB590]
NanoBRET Fold Response (P2RY6; P2RY6, tracer 0.1μM): 1.00 | NanoBRET Fold Response (P2RY6; P2RY6, tracer 1μM): 1.03 | NanoBRET Fold Response (PTGDR; PTGDR, tracer 0.1μM): 1.01 | NanoBRET Fold Response (PTGDR; PTGDR, tracer 1μM): 0.93 | NanoBRET Fold Response (CNR1; tracer 0.1μM): 1.00 | NanoBRET Fold Response (CNR1; tracer 1μM): 1.02

CN(C)CCC=C1c2ccccc2CCc2ccc(C(=O)NCCNC(=O)CCOCCOCCOCCOCCNC(=O)CCc3ccc4n3[B-](F)(F)[N+]3=C(c5ccc[nH]5)C=CC3=C4)cc21 [Amitriptyline-b-2-NB590]
NanoBRET Fold Response (P2RY6; tracer at 0.1μM, listed as amitriptyline-b-2-NB590): 1.04 | NanoBRET Fold Response (P2RY6; tracer at 1μM, listed as amitriptyline-b-2-NB590): 0.95 | NanoBRET Fold Response (PTGDR; tracer at 1μM): 1.03 | NanoBRET Fold Response (CNR1; tracer 0.1μM): 1.03 | NanoBRET Fold Response (CNR1; tracer 1μM): 1.04
